Holding throughout (format): cell-based
Assay [1] has as its system Jurkat T-cell leukemic cells. The assay is described as follows: Cell cycle assay (Example 163), G2/M block in Jurkat cells. The settings on record: 24 h, flow cytometry (PI), Table 2; for activation at 0.1 µM: Homo sapiens, Jurkat. How it is done:
(§1) MCF-7 breast cancer cells and Jurkat T-cell leukemic cells were grown (and maintained) in EMEM and RPMI media, respectively, containing 10% fetal calf serum.
Test agents were added a concentration of 0.1 μM. Twenty-fours after test agent addition, cells were analyzed for cell cycle status as described below.
(§2) Cell cycle status was analyzed by flow cytometry. Briefly, cells were collected and washed with FACs buffer (Pharmingen) and resuspended and fixed in 1 mL of 80% ethanol for 1 hr. Cells were washed with FACs buffer and resuspended in propidium iodide(PI)/RNase staining buffer (Pharmingen). PI is a fluorescent dye that labels nucleic acids such as DNA. The fluorescence within a cell (in the presence of PI) is proportional to the amount of DNA within a cell. The cell content of DNA is an indices of status in the cell cycle. […] Cells in the S phase have DNA content that lies between these extremes.
(§3) For testing of cell cycle effects of test agents the percentage of cells within the G1 and G2/M phase were measured.
(Flow cytometry measures light scatter and fluorescence of single cells or particles in a stream.)

The subject of assay [2] is MCF-7 breast cancer cells. The assay is described as follows: Cell cycle assay (Example 163), G2/M block in MCF-7 cells. Particulars: flow cytometry (PI), Table 2; for activation at 1 µM: Homo sapiens, MCF7, 24 h. How it is done: as §1
Cells were allowed to adhere for 24 hrs. After adherence, cell culture media was changed to that containing 0.5% FCS. Thirty minutes post-media change, test compounds were added at a concentration of 1 μM. Twenty-fours after test agent addition, cells were analyzed for cell cycle status as described below.
as §2, §3

The subject of a further assay is Hela cells. Description: Cell viability assay (WST-1), Hela cells. The settings on record: WST-1, 48-72 hrs, 0.5% fetal calf serum. How it is done: (§4) Jurkat and Hela cells were cultured in RPMI and EMEM media, respectively, containing 0.5% fetal calf serum. Cells were plated in a volume of 100 μL in a 96 well format. Test compounds were included in the culture media at concentrations ranging from 1 nM to 10 μM for a period of 48-72 hrs. Cell viability was determined using the WST-1 calorimetric mitochondrial reduction assay. Briefly, 10 μL of WST-1 reagent was included in the culture well for a period of 1 to 4 hrs. The WST-1 reaction was read on a multiwell spectrophotometer as the difference in the absorbance between 450 nm and 600 nm (baseline). Absorbance was proportional to the number of living cells in the culture well. Concentration response curves and IC50 values were calculated using GraphPAD Prism graphing and curve fitting program.

For a further assay, the system named is Jurkat cells. The assay is described as follows: Cell viability assay (WST-1), Jurkat cells. Particulars: Homo sapiens, WST-1, 48-72 hrs, 0.5% fetal calf serum. The procedure:
as §4
(In general: Formazan colour is commonly taken as a measure of viable cells.)

The values that follow come from patent publication US20080280891A1, “Anti-cancer agents and uses thereof” (Locus Pharmaceuticals, Inc., priority 2006, published 2008).

One may read the IC50 as the concentration that gives 50% inhibition. A lower IC50 goes with higher potency.

Turning to `N#Cc1ccc2c(ccn2-c2cc(O)cc(Nc3cccnc3)c2)c1` [1-[3-Hydroxy-5-(pyridin-3-ylamino)-phenyl]-1H-indole-5-carbonitrile], in assay [1], the activation at 0.1 µM was ≥ 50%. Besides, the activation at 1 µM in assay [2] is < 50%. For the same compound, in the assay on Hela cells (Homo sapiens, HeLa), the IC50 was in the range of 1000 to 30000 nM.
With `O=C(c1cccnc1)c1cc(O)cc(-c2cccc3[nH]cc(C(=O)C(F)(F)F)c23)c1` [2,2,2-Trifluoro-1-{4-[3-hydroxy-5-(pyridine-3-carbonyl)-phenyl]-1H-indol-3-yl}-ethanone], the activation at 0.1 µM in assay [1] is < 50%. In addition, the activation at 1 µM in assay [2] is < 50%. This compound also displayed an IC50 with Hela cells (Homo sapiens, HeLa) of 1000 to 30000 nM.
Turning to `Oc1ccc(C(O)c2cccnc2)cc1C12CC3CC(CC(C3)C1)C2` (stereo not drawn) [2-Adamantan-1-yl-4-(hydroxy-pyridin-3-yl-methyl)-phenol], in assay [1], the activation at 0.1 µM is < 50%. In addition, the IC50 in the assay on Hela cells (Homo sapiens, HeLa) was > 3000 nM; in the assay with Jurkat cells, 1000 to 30000 nM.
In the case of `Oc1cc(Nc2cccnc2)cc(-c2cccc3[nH]ccc23)c1Cc1ccccc1` [2-Benzyl-3-(1H-Indol-4-yl)-5-(pyridin-3-ylamino)-phenol], the activation at 0.1 µM in assay [1] was < 50%. Moreover, the activation at 1 µM in assay [2] was < 50%. In addition, the half-inhibitory concentration (IC50) with Hela cells (Homo sapiens, HeLa) fell in the range of 1000 to 30000 nM; with Jurkat cells, 1000 to 30000 nM.
As for `Oc1cc(Nc2cccnc2)cc(-c2ccccc2Cl)c1` [2′-Chloro-5-(pyridin-3-ylamino)-biphenyl-3-ol], the activation at 0.1 µM in assay [1] is < 50%. The activation at 1 µM in assay [2] is < 50%. Besides, the half-inhibitory concentration (IC50) with Hela cells (Homo sapiens, HeLa) is 1000 to 30000 nM; in the assay on Jurkat cells, > 3000 nM.
Turning to `CC(O)(c1cccnc1)c1cc(O)cc(-c2cccc3[nH]ccc23)c1` (stereo not drawn) [3-(1-Hydroxy-1-pyridin-3-yl-ethyl)-5-(1H-indol-4-yl)-phenol], the activation at 0.1 µM in assay [1] is < 50%. The 50% inhibitory concentration (IC50) in the assay with Hela cells (Homo sapiens, HeLa) was in the range of 1 to 999 nM; in the assay with Jurkat cells, 1000 to 30000 nM.
With `Cn1ccc2cccc(-c3cc(O)cc(Nc4cccnc4)c3)c21` [3-(1-Methyl-1H-indol-7-yl)-5-(pyridin-3-ylamino)-phenol], the activation at 0.1 µM in assay [1] was < 50%. Moreover, the IC50 in the assay with Hela cells (Homo sapiens, HeLa) is > 3000 nM; in the assay with Jurkat cells it was 1000 to 30000 nM.
Turning to `Oc1cc(Nc2cccnc2)cc(-c2cccc3cn[nH]c23)c1` [3-(1H-Indazol-7-yl)-5-(pyridin-3-ylamino)-phenol], the activation at 0.1 µM in assay [1] is < 50%. For the same compound, the activation at 1 µM in assay [2] is < 50%. Also, the half-maximal inhibitory concentration (IC50) in the assay on Hela cells (Homo sapiens, HeLa) lay in the range of 1000 to 30000 nM; with Jurkat cells it was 1 to 999 nM.
As for `[O-][n+]1cccc(Nc2cc(O)cc(-c3cccc4[nH]ccc34)c2)c1` [3-(1H-Indol-4-yl)-5-(1-oxy-pyridin-3-ylamino)-phenol], the “Jurkat G2/M Block 0.1 μM” value in assay [1] is recorded as “Y (Y indicates a 50% or greater increase in the number of cells in the G2/M phase, as compared to control)”. In assay [2] (24 h), the “MCF-7 G2/M Block 1 μM” value is recorded as “Y (Y indicates a 50% or greater increase in the number of cells in the G2/M phase, as compared to control)”. The compound further returned an IC50 in the assay on Hela cells of 1 to 999 nM.
As for `Oc1cc(Nc2cnccn2)cc(-c2cccc3[nH]ccc23)c1` [3-(1H-Indol-4-yl)-5-(pyrazin-2-ylamino)-phenol], the activation at 0.1 µM in assay [1] was ≥ 50%. Also, the activation at 1 µM in assay [2] was ≥ 50%. Besides, the half-inhibitory concentration (IC50) with Hela cells (Homo sapiens, HeLa) fell in the range of 1 to 999 nM; in the assay on Jurkat cells, 1 to 999 nM.
For `Oc1cc(Nc2ccccn2)cc(-c2cccc3[nH]ccc23)c1` [3-(1H-Indol-4-yl)-5-(pyridin-2-ylamino)-phenol], the activation at 0.1 µM in assay [1] is ≥ 50%. Also, in assay [2], the activation at 1 µM is < 50%. Also, the IC50 with Hela cells (Homo sapiens, HeLa) was 1 to 999 nM.
For `Oc1cc(Nc2ccncc2)cc(-c2cccc3[nH]ccc23)c1` [3-(1H-Indol-4-yl)-5-(pyridin-4-ylamino)-phenol], the activation at 0.1 µM in assay [1] was ≥ 50%. For the same compound, the activation at 1 µM in assay [2] was ≥ 50%. Moreover, the IC50 fell in the range of 1 to 999 nM in the assay on Hela cells (Homo sapiens, HeLa) and 1 to 999 nM in the assay with Jurkat cells.
Consider `Oc1cc(Nc2cccnc2)cc(-c2ccc3[nH]ccc3c2)c1` [3-(1H-Indol-5-yl)-5-(pyridin-3-ylamino)-phenol], for which the activation at 0.1 µM in assay [1] is ≥ 50%. Besides, in assay [2], the activation at 1 µM was < 50%. Further, the 50% inhibitory concentration (IC50) in the assay on Hela cells (Homo sapiens, HeLa) was 1000 to 30000 nM; in the assay on Jurkat cells, 1 to 999 nM.
`O=[N+]([O-])c1ccc2ccn(-c3cc(O)cc(Nc4cccnc4)c3)c2c1` [3-(6-Nitro-indol-1-yl)-5-(pyridin-3-ylamino)-phenol]: in assay [1], the activation at 0.1 µM is ≥ 50%. The compound further registered an IC50 in the assay on Hela cells (Homo sapiens, HeLa) of 1 to 999 nM.
On to `Oc1cc(Nc2cccnc2)cc(-c2cccc3cccnc23)c1` [3-(Pyridin-3-ylamino)-5-quinolin-8-yl-phenol], for which the activation at 0.1 µM in assay [1] is < 50%. Moreover, the activation at 1 µM in assay [2] is < 50%. For the same compound, in the assay with Hela cells (Homo sapiens, HeLa), the IC50 was in the range of 1000 to 30000 nM.
On to `Oc1cc(Nc2cccnc2)cc(-c2ccc3c(c2)OCO3)c1` [3-Benzo[1,3]dioxol-5-yl-5-(pyridin-3-ylamino)-phenol], for which the activation at 0.1 µM in assay [1] was < 50%. The half-inhibitory concentration (IC50) is > 3000 nM in the assay on Hela cells (Homo sapiens, HeLa) and 1000 to 30000 nM with Jurkat cells.
On to `Oc1cc(Nc2cccnc2)cc(-c2cccc3c2CCC3)c1` [3-Indan-4-yl-5-(pyridin-3-ylamino)-phenol], for which, in assay [1], the activation at 0.1 µM was < 50%. In assay [2], the activation at 1 µM is < 50%. This compound also came in with a half-inhibitory concentration (IC50) in the assay on Hela cells (Homo sapiens, HeLa) of 1000 to 30000 nM.
In the case of `Oc1cc(Nc2ccc(O)nc2)cc(-c2cccc3[nH]ccc23)c1` [5-[3-Hydroxy-5-(1H-indol-4-yl)-phenylamino]-pyridin-2-ol], in assay [1], the activation at 0.1 µM is < 50%. Moreover, the IC50 in the assay on Hela cells (Homo sapiens, HeLa) fell in the range of 1 to 999 nM; in the assay on Jurkat cells it was 1000 to 30000 nM.
On to `Oc1cc(-c2cccc3[nH]ccc23)nc(Nc2cccnc2)n1` [6-(1H-Indol-4-yl)-2-(pyridin-3-ylamino)-pyrimidin-4-ol], for which the activation at 0.1 µM in assay [1] was ≥ 50%. This compound also yielded a half-inhibitory concentration (IC50) with Hela cells (Homo sapiens, HeLa) of 1000 to 30000 nM.
For the compound `O=C(c1ccc(Cl)nc1)c1cc(O)cc(-c2cccc3[nH]ccc23)c1` [(6-Chloro-pyridin-3-yl)-[3-hydroxy-5-(1H-indol-4-yl)-phenyl]-methanone], the activation at 0.1 µM in assay [1] was ≥ 50%. Moreover, in assay [2], the activation at 1 µM is < 50%. For the same compound, the IC50 with Hela cells (Homo sapiens, HeLa) is 1 to 999 nM.
Consider `COc1ccc(COc2cc(Nc3cccnc3)cc(-c3cccc4sccc34)c2)cc1` [[3-Benzo[b]thiophen-4-yl-5-(4-methoxy-benzyloxy)-phenyl]-pyridin-3-yl-amine], for which the IC50 in the assay on Hela cells (Homo sapiens, HeLa) lay within 1000 to 30000 nM; in the assay with Jurkat cells, 1000 to 30000 nM.
Turning to `O=C(c1ccc(O)nc1)c1cc(O)cc(-c2cccc3[nH]ccc23)c1` [[3-Hydroxy-5-(1H-indol-4-yl)-phenyl]-(6-hydroxypyridin-3-yl)-methanone], the activation at 0.1 µM in assay [1] was < 50%. The 50% inhibitory concentration (IC50) in the assay on Hela cells (Homo sapiens, HeLa) was 1 to 999 nM; in the assay with Jurkat cells, 1000 to 30000 nM.
Consider `Cc1ccc(C(=O)c2cc(O)cc(-c3cccc4[nH]ccc34)c2)cn1` [[3-Hydroxy-5-(1H-indol-4-yl)-phenyl]-(6-methyl-pyridin-3-yl)-methanone], for which the activation at 0.1 µM in assay [1] is < 50%. The IC50 lay within 1000 to 30000 nM in the assay on Hela cells (Homo sapiens, HeLa) and 1 to 999 nM in the assay on Jurkat cells.
For `ON=C(c1cccnc1)c1cc(O)cc(-c2cccc3[nH]ccc23)c1` [[3-Hydroxy-5-(1H-indol-4-yl)-phenyl]-pyridin-3-yl-methanone oxime], the activation at 0.1 µM in assay [1] is < 50%. Also, the activation at 1 µM in assay [2] is < 50%. This compound also displayed an IC50 with Hela cells (Homo sapiens, HeLa) of 1000 to 30000 nM.
With `COc1cc(-c2cccc3[nH]ccc23)nc(Nc2cccnc2)n1` [[4-(1H-Indol-4-yl)-6-methoxy-pyrimidin-2-yl]-pyridin-3-ylamine], the activation at 0.1 µM in assay [1] is < 50%. In assay [2], the activation at 1 µM was < 50%. Moreover, the concentration for half-maximal inhibition (IC50) in the assay with Hela cells (Homo sapiens, HeLa) lay in the range of 1000 to 30000 nM.
